Legend:
AurA = biological target: T1, AurA (Homo sapiens, UniProt O14965); experiment: Probe-based (AX9989) kinase profiling in Jurkat lysate: AurA; type: binding; conditions: screening concentration 1 μM; read-out: AurA Inhibition % at indicated screening concentration
T1 construct: screened for activity against several kinases in Jurkat cells; endogenous in cells; host or cells: Jurkat cell lysate
T1 sequence (O14965 1-403): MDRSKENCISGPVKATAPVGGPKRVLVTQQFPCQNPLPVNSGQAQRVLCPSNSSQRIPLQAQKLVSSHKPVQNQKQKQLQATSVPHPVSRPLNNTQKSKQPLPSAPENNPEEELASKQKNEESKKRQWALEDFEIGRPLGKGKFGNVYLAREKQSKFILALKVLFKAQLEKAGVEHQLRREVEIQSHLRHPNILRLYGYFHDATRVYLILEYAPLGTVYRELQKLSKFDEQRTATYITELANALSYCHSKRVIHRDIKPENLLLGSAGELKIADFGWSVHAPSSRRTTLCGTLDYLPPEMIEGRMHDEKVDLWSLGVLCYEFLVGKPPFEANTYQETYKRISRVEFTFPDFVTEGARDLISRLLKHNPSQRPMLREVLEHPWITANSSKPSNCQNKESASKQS
Procedure, shortened: (§1)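 Percent inhibition was derived from reduced LC/MS fragment intensities of probe-labeled peptides relative to compound-free controls. Before labeling with 5 μM AX9989, Mn2+-supplemented (20 mM) Jurkat lysate was exposed to compound for 15 min at room temperature.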

JAK1 = biological target: T2, JAK1 (Homo sapiens, UniProt P23458); experiment: Probe-based (AX9989) kinase profiling in Jurkat lysate: JAK1; type: binding; conditions: screening concentration 1 μM; read-out: JAK1 Inhibition % at indicated screening concentration
T2 construct: screened for activity against several kinases in Jurkat cells; endogenous in cells; host or cells: Jurkat cell lysate
Procedure, shortened: as §1

TAO2 = biological target: T3, TAO2 (Homo sapiens, UniProt Q9UL54); experiment: Probe-based (AX9989) kinase profiling in Jurkat lysate: TAO2; type: binding; conditions: screening concentration 1 μM; read-out: TAO2 Inhibition % at indicated screening concentration
T3 construct: screened for activity against several kinases in Jurkat cells; endogenous in cells; host or cells: Jurkat cell lysate
T3 sequence (Q9UL54 1-1235): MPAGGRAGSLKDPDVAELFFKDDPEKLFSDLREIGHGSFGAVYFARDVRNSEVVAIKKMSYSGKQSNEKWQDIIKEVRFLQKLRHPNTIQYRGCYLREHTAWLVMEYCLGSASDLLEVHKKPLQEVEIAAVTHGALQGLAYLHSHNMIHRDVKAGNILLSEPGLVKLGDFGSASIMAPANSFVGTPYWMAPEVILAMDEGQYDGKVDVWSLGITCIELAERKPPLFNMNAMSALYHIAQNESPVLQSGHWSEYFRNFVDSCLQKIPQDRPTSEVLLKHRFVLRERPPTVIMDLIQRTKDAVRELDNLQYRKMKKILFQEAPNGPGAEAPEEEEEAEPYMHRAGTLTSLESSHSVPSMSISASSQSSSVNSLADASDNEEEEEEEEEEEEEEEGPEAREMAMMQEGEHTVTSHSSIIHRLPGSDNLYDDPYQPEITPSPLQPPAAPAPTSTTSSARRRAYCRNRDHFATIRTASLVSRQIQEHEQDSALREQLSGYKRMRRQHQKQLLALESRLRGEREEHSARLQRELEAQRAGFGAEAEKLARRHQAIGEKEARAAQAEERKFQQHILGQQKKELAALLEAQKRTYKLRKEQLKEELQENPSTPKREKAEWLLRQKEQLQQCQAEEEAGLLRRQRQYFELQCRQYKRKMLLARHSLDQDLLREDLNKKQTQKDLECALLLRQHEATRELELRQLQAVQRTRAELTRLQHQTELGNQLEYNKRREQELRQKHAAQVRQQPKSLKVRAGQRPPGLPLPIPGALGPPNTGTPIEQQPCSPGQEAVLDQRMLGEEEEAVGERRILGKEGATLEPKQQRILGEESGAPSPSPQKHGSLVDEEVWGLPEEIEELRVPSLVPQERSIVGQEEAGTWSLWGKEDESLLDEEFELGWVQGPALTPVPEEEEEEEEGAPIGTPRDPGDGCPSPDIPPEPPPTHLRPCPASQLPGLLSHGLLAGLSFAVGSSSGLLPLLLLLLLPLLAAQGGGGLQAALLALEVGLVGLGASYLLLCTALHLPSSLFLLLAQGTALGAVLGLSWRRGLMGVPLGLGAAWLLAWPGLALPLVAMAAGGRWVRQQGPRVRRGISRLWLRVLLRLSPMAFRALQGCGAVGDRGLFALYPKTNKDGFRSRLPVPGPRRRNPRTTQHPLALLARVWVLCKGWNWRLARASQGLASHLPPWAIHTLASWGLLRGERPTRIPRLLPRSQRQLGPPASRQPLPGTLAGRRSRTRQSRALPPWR
Procedure, shortened: as §1

human PBMCs = experiment: Human PBMC TNF-α response to endotoxin (ELISA); type: cell-based; conditions: 0.1 μg/ml LPS 16 h, read-out: EC50 for the inhibition of the human PBMC TNF-α response to endotoxin, ave. ± S.D.
Procedure, shortened: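 PBMCs at 2e6 cells/ml in RPMI 1640 with 10% charcoal-dextran-treated FBS were pre-treated 1 h at 37 °C with compound (4-point 1:5 dilution from 10 μM). Stimulation with 0.1 μg/ml E. coli 0111:B4 LPS for 16 h; TNF-α measured by ELISA (A450) in 25-fold diluted supernatant.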

ABL or ARG = experiment: Probe-based (AX9989) kinase profiling in Jurkat lysate: ABL or ARG; type: binding; conditions: screening concentration 1 μM
Procedure, shortened: as §1

AurB or AurC = experiment: Probe-based (AX9989) kinase profiling in Jurkat lysate: AurB or AurC; type: binding; conditions: screening concentration 1 μM
Procedure, shortened: as §1

AMPKa1 or AMPKa2 = experiment: Probe-based (AX9989) kinase profiling in Jurkat lysate: AMPKa1 or AMPKa2; type: binding; conditions: screening concentration 1 μM
Procedure, shortened: as §1

ERK5 = biological target: T4, ERK5 (Homo sapiens, UniProt Q13164); experiment: Probe-based (AX9989 acyl phosphate ATP probe) kinase profiling in Jurkat lysate: ERK5; type: binding; conditions: for IC50: calculated from percent inhibition and screening concentration, Jurkat lysate, AX9989 probe; for inhibition at 1 µM: screening concentration 1 μM, read-out: ERK5 Inhibition % at indicated screening concentration
T4 construct: screened for activity against several kinases in Jurkat cells; endogenous in cells; host or cells: Jurkat cell lysate
Procedure, shortened: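 ERK5 IC50 values came from percent inhibition at the screening concentration, measured as loss of LC/MS signal of probe-labelled active-site peptides. Compound was added for 15 min at room temperature to Jurkat lysate (5 mg/ml, 20 mM MnCl2) before labelling with AX9989 ATP acyl phosphate probe at 5 μM.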

ACK = biological target: T5, ACK (Homo sapiens, UniProt Q07912); experiment: Probe-based (AX9989) kinase profiling in Jurkat lysate: ACK; type: binding; conditions: screening concentration 1 μM; read-out: ACK Inhibition % at indicated screening concentration
T5 construct: screened for activity against several kinases in Jurkat cells; endogenous in cells; host or cells: Jurkat cell lysate
Procedure, shortened: as §1

T2 sequence (P23458 whole entry): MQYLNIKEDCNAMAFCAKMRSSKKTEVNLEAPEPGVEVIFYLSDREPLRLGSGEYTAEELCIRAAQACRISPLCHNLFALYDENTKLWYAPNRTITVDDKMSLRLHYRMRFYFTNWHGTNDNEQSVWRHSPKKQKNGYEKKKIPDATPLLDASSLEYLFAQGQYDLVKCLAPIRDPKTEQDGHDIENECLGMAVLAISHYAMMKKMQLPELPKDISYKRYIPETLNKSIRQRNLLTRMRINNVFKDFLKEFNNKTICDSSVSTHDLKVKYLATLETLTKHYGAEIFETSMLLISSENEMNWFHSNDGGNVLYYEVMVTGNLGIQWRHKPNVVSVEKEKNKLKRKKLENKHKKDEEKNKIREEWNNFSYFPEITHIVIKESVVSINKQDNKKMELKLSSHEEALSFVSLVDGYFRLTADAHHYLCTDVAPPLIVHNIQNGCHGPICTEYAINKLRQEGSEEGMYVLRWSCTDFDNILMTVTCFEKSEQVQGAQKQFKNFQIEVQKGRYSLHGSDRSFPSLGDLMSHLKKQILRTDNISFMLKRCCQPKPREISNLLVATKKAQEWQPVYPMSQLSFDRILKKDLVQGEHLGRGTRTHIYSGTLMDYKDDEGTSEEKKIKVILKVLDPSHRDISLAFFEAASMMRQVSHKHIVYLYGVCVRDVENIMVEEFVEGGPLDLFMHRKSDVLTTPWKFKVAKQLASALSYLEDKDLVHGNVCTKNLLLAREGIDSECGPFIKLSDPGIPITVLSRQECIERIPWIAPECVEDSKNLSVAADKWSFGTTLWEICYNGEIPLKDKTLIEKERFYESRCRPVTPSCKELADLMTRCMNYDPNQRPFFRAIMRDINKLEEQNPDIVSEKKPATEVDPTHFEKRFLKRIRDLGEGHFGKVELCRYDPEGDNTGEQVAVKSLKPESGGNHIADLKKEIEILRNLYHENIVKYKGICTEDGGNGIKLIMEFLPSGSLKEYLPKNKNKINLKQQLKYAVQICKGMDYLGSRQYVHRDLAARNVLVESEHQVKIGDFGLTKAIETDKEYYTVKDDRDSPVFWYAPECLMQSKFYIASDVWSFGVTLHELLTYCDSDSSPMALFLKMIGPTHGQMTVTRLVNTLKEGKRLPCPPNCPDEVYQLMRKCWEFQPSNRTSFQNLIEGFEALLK
T4 sequence (Q13164 whole entry): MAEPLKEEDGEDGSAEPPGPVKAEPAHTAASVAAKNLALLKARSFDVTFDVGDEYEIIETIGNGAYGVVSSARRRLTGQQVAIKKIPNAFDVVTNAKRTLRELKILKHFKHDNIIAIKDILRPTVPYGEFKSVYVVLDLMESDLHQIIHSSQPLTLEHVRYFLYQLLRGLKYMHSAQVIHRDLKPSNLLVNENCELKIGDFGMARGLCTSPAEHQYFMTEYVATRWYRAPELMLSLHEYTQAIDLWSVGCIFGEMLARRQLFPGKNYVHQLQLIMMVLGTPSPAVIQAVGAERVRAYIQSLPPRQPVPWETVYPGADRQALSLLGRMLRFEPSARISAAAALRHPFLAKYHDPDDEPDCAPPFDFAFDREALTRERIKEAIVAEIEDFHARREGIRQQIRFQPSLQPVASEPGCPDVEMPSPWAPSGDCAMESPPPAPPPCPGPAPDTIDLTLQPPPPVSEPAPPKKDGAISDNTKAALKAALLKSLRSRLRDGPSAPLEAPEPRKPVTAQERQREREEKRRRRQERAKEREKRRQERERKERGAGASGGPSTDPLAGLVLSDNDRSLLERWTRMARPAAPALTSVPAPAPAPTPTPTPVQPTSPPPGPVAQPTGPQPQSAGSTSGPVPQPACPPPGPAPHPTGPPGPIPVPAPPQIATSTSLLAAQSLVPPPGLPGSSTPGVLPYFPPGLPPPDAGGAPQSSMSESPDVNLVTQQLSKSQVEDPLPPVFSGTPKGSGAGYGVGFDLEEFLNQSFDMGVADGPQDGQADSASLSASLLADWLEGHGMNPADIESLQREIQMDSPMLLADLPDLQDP
T5 sequence (Q07912 whole entry): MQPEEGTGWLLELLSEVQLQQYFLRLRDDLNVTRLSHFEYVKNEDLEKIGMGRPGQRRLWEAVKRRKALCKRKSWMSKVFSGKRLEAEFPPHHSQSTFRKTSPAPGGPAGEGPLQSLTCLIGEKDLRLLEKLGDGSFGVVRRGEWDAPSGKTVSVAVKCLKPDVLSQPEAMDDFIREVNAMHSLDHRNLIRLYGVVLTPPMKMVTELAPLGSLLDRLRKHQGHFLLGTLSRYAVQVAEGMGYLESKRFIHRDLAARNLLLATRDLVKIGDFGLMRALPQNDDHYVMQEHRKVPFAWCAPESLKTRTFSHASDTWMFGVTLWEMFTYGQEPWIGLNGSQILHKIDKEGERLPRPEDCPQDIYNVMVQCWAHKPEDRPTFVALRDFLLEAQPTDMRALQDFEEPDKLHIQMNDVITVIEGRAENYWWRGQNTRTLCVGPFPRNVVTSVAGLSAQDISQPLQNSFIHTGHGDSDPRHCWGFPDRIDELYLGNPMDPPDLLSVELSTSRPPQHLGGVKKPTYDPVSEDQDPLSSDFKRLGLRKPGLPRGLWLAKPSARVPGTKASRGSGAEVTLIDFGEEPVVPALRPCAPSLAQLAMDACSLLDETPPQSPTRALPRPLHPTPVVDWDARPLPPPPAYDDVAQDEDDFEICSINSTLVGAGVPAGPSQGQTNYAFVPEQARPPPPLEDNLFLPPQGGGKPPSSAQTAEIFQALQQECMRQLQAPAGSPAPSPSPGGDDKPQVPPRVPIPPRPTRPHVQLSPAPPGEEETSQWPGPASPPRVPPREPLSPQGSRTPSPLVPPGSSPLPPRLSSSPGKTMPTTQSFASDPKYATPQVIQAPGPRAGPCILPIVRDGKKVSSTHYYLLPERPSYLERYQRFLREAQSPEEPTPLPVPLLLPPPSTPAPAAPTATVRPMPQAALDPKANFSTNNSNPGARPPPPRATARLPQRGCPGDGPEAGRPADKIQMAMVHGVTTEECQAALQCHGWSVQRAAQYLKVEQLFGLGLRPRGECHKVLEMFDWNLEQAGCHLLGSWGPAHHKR

| SMILES | inhibition at 1 µM (AurA) | inhibition at 1 µM (JAK1) | inhibition at 1 µM (TAO2) | ABL or ARG Inhibition % at indicated screening concentration (ABL or ARG) | AurB or AurC Inhibition % at indicated screening concentration (AurB or AurC) | AMPKa1 or AMPKa2 Inhibition % at indicated screening concentration (AMPKa1 or AMPKa2) | IC50 (ERK5) | inhibition at 1 µM (ERK5) | inhibition at 1 µM (ACK) | EC50 (human PBMCs) |
| --- | --- | --- | --- | --- | --- | --- | --- | --- | --- | --- |
| CCOc1cc(C(=O)N2CC[C@@H](N3CCN(C)CC3)C2)ccc1Nc1cc2c(cn1)N(C)C(=O)c1ccccc1N2C1CC1 [Compound T68] | ≤ 35% | ≤ 35% | ≤ 35% | E (E is ≦35%) | E (E is ≦35%) | E (E is ≦35%) | ≤ 0.05 µM | > 90% | ≤ 35% | 1.4 µM |
| CN1CCN([C@@H]2CCN(C(=O)c3ccc(Nc4cc5c(cn4)N(C)C(=O)c4ccccc4N5C)c(F)c3)C2)CC1 [Compound T69] | ≤ 35% | ≤ 35% | ≤ 35% | E (E is ≦35%) | E (E is ≦35%) | E (E is ≦35%) | ≤ 0.05 µM | > 90% | 35 to 50% | 3.48 µM |
| CC(=O)N1CCN(C(=O)c2ccc(Nc3cc4c(cn3)N(C)C(=O)c3ccccc3N4C)c(F)c2)CC1 [Compound T71] | ≤ 35% | ≤ 35% | ≤ 35% | E (E is ≦35%) | E (E is ≦35%) | E (E is ≦35%) | ≤ 0.05 µM | > 90% | ≤ 35% | 4.2 µM |

Now from value to compound, other results behind:

| inhibition at 1 µM (AurA) | inhibition at 1 µM (JAK1) | inhibition at 1 µM (TAO2) | ABL or ARG Inhibition % at indicated screening concentration (ABL or ARG) | AurB or AurC Inhibition % at indicated screening concentration (AurB or AurC) | AMPKa1 or AMPKa2 Inhibition % at indicated screening concentration (AMPKa1 or AMPKa2) | IC50 (ERK5) | inhibition at 1 µM (ERK5) | inhibition at 1 µM (ACK) | SMILES | EC50 (human PBMCs) |
| --- | --- | --- | --- | --- | --- | --- | --- | --- | --- | --- |
| ≤ 35% | ≤ 35% | ≤ 35% | E (E is ≦35%) | D (D is >35% to ≦50%) | E (E is ≦35%) | ≤ 0.05 µM | > 90% | ≤ 35% | CN1C(=O)c2ccccc2N(C)c2cc(Nc3ccc(C(=O)N4CCN(S(C)(=O)=O)CC4)cc3F)ncc21 [Compound T72] | 4.25 µM |
| ≤ 35% | ≤ 35% | ≤ 35% | E (E is ≦35%) | E (E is ≦35%) | E (E is ≦35%) | > 0.5 µM | 35 to 50% | ≤ 35% | CCOc1cc(C(=O)N2CCN(C(C)=O)CC2)ccc1Nc1cc2c(cn1)N(C)C(=O)c1scnc1N2C [Compound T73] | > 10 µM |
| ≤ 35% | ≤ 35% | ≤ 35% | E (E is ≦35%) | E (E is ≦35%) | E (E is ≦35%) | > 0.5 µM | 50 to 75% | ≤ 35% | CCOc1cc(C(=O)N2CC[C@@H](N3CCN(C)CC3)C2)ccc1Nc1cc2c(cn1)N(C)C(=O)c1scnc1N2C [Compound T74] | 4.82 µM |
